Experimental data published in publication PMC6100415, “Hepatic Metabolism of Sakuranetin and Its Modulating Effects on Cytochrome P450s and UDP-Glucuronosyltransferases” (Molecules : A Journal of Synthetic Chemistry and Natural …, 2018).
Read-outs that look alike come from different tables or passages of the source.

Legend:
Assay type in all cases: in vitro ADME
UGT1A9 = biological target: T1, UGT1A9 (Homo sapiens, UniProt O60656); assay: UGT inhibition in human liver microsomes, mycophenolic acid O-glucuronidation (MPAG); conditions: for inhibition at 10 μM: human, pH 7.4, probe mycophenolic acid (200 μM), O-glucuronidation (MPAG), UGT1A9, MPAG
T1 construct: The typical incubation mixture contained human liver microsomes (0.5 mg/mL) along with SKN (10 μM); tissue BD Gentest; host or cells: human liver microsomes
T1 sequence (O60656 26-530): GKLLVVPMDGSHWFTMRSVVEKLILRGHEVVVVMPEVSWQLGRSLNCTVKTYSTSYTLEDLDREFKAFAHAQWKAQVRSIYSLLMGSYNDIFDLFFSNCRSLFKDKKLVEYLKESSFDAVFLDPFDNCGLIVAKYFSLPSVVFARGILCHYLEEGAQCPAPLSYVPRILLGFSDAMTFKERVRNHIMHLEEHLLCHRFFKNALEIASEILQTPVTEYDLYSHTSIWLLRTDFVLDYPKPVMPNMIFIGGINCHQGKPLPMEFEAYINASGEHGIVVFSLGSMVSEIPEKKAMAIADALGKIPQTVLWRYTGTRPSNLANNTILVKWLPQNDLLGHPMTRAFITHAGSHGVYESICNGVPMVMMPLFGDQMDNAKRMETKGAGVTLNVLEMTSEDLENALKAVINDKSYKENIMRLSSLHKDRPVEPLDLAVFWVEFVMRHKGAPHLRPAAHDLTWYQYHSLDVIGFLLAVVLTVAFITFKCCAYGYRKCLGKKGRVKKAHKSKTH
Method: (§1) The formation of a glucuronide conjugate from an isozyme-specific substrate (200 μM, Table 5) was examined to determine UGT activity levels in human liver microsomes. The typical incubation mixture contained human liver microsomes (0.5 mg/mL) along with SKN (10 μM), and MgCl2 (10 mM) in 50 mM Tris-HCl buffer (pH 7.4). The metabolic reaction was initiated by adding UPDGA (2 mM) and stopped by adding an equal volume of ice-cold methanol. […] The conditions used for the operation and analysis of the HPLC-DAD and LC-ESI-MS are provided in the Supplementary Materials and Table S3.
(§2) The solvent flow rate was set at 0.2 mL/min, and the column temperature was set at 35 °C. The LTQ instrument was operated in negative ion electron spray mode at an ion spray voltage of −4.2 kV and a source temperature of 275 °C. The sheath gas flow rate was 35 arb, and the aux gas flow rate was 5 arb. The MS conditions used to detect glucuronides via selected ion monitoring scan mode are summarized in Supplementary Materials Table S3.

CYP2D6 = CYP2D6 (Homo sapiens, UniProt P10635); assay: CYP inhibition in human liver microsomes, dextromethorphan O-demethylation (DEXOD); conditions: pH 7.4, probe dextromethorphan (O-demethylation, DEXOD)
Chain of CYP2D6 (P10635 whole entry): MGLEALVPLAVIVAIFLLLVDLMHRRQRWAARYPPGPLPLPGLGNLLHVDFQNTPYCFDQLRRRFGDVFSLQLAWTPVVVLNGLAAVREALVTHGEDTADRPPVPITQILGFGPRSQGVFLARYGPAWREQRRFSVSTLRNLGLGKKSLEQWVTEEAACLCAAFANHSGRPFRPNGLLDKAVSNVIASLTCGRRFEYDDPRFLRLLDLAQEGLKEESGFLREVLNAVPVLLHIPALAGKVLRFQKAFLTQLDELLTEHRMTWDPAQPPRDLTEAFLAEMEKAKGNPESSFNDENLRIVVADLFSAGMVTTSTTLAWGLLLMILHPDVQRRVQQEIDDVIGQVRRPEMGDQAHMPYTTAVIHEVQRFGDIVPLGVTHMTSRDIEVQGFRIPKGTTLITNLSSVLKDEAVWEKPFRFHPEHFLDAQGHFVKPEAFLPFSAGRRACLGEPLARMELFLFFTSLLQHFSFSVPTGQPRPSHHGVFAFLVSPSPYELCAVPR
Description: (§3) The DAD was set at 280 nm.

UGT1A3 = biological target: T2, UGT1A3 (Homo sapiens, UniProt P35503); assay: UGT inhibition in human liver microsomes, chenodeoxycholic acid 24-glucuronidation (CDCAG); conditions: pH 7.4, probe chenodeoxycholic acid (200 μM)
T2 construct: The typical incubation mixture contained human liver microsomes (0.5 mg/mL) along with SKN (10 μM); tissue BD Gentest; host or cells: human liver microsomes
T2 sequence (P35503 29-534): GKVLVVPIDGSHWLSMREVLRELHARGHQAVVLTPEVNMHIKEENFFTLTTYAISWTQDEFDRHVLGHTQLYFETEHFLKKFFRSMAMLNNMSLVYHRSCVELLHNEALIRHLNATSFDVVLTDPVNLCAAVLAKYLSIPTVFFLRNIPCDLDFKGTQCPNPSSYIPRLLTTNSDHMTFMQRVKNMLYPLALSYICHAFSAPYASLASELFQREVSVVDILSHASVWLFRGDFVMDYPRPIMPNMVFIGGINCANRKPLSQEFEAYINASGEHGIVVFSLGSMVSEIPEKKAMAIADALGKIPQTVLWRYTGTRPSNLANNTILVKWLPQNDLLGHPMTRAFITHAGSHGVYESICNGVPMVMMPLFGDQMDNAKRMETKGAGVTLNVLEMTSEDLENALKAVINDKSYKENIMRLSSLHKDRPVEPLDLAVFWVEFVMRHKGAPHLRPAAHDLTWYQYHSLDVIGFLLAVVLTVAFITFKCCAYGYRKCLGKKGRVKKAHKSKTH
Method: as §1, §2

UGT1A1 = biological target: T3, UGT1A1 (Homo sapiens, UniProt P22309); assay: UGT inhibition in human liver microsomes, 17β-estradiol 3-O-glucuronidation (ESG); conditions: pH 7.4, probe 17β-estradiol (200 μM)
T3 construct: The typical incubation mixture contained human liver microsomes (0.5 mg/mL) along with SKN (10 μM); tissue BD Gentest; host or cells: human liver microsomes
T3 sequence (P22309 26-533): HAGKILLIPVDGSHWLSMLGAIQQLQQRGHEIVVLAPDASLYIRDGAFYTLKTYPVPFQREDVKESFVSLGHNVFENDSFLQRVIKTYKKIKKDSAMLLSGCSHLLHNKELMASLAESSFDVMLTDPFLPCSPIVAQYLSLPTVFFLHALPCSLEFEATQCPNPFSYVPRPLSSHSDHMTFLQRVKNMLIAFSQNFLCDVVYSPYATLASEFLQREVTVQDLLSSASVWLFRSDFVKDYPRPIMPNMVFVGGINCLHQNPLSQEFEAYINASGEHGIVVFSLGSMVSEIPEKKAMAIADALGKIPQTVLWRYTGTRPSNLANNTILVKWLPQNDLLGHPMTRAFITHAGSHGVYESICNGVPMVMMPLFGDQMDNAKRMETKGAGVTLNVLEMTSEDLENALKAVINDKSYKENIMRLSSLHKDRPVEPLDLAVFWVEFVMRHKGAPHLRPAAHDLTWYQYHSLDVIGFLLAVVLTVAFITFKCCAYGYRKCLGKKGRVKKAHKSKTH
Method: as §1, §2

CYP1A2 = biological target: T4, CYP1A2 (Homo sapiens, UniProt P05177); assay: CYP inhibition in human liver microsomes, phenacetin O-deethylation (PCOD); conditions: pH 7.4, probe phenacetin (O-deethylation, PCOD)
T4 sequence (P05177 1-516): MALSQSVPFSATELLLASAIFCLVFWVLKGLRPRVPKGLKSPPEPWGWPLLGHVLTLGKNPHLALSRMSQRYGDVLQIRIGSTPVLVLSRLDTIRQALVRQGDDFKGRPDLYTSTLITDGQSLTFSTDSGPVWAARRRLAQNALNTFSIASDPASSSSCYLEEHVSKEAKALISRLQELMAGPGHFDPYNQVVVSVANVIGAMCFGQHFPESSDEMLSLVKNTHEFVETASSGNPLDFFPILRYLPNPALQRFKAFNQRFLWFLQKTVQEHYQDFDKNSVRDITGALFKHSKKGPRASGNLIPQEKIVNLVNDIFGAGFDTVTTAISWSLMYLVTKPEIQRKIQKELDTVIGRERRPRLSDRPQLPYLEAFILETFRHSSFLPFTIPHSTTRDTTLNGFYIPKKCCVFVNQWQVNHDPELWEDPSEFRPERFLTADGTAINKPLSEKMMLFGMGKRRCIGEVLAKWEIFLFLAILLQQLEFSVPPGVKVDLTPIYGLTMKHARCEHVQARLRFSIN
Description: as §3

[1] = human liver microsomes, inhibitor 10 µM, human liver microsomes 0.5 mg/mL, read-out: Inhibition (%)
[2] = human liver microsomes, 200 µM, inhibitor 10 M [sic], human liver microsomes 0.5 mg/mL, read-out: Inhibition (%)
[3] = inhibitor 10 µM, human liver microsomes 0.5 mg/mL, read-out: Inhibition (%)
[4] = liver microsomes, 200 μM, SKN 10 μM, 15 min pre-incubation, read-out: % Inhibition in Pre-Incubation
[5] = liver microsomes, 200 μM, SKN 10 μM, human liver microsomes, read-out: % Inhibition in Co-Incubation
[6] = SKN 10 μM, 15 min pre-incubation, read-out: % Inhibition in Pre-Incubation
[7] = SKN 10 μM, read-out: % Inhibition in Co-Incubation

inhibition at 10 μM (UGT1A9; [1]) [%]	inhibition at 60 min, 10 µM (CYP2D6; [2]) [%]	inhibition at 10 μM (UGT1A3; [3]) [%]	inhibition at 10 μM (UGT1A1; [3]) [%]	fold higher inhibition of UGT1A9 in the pre-incubation sample than in the co-incubation sample (UGT1A9; SKN, human liver microsomes) [fold]	inhibition at 10 μM (UGT1A9; human liver microsomes, SKN 10 μM, 15 min pre-incubation, read-out: % Inhibition in Pre-Incubation) [%]	inhibition at 10 μM (UGT1A9; human liver microsomes, SKN 10 μM, human liver microsomes, read-out: % Inhibition in Co-Incubation) [%]	mode of UGT1A9 inhibition (UGT1A9; pre-incubation 15 min, 10-fold dilution)	inhibition at 60 min, 10 µM (CYP1A2; [4]) [%]	inhibition at 60 min, 10 µM (CYP1A2; [5]) [%]	inhibition at 60 min, 10 µM (CYP2D6; [4]) [%]	inhibition at 60 min, 10 µM (CYP2D6; [5]) [%]	inhibition at 10 μM (UGT1A3; [6]) [%]	inhibition at 10 μM (UGT1A3; [7]) [%]	inhibition at 10 μM (UGT1A1; [6]) [%]	inhibition at 10 μM (UGT1A1; [7]) [%]	inhibition at 60 min, 10 µM (CYP1A2; [2]) [%]	SMILES
2 ± 2.1	11.9 ± 1.4	2 ± 0.9	10.8 ± 3	–	–	–	–	–	–	–	–	–	–	–	–	–	O=C1C[C@@H](c2ccc(O)cc2)Oc2cc(O)cc(O)c21 [Naringenin]
–	–	–	–	1.5	3.5 ± 2.6	-0.6 ± 3.1	irreversible UGT1A9 inhibitor	1.5 ± 2.1	0.4 ± 0.5	3.5 ± 2.6	-0.6 ± 3.1	0.8 ± 0.2	-0.6 ± 0.9	1.5 ± 2.1	0.4 ± 0.5	–	COc1cc(O)c2c(c1)OC(c1ccc(O)cc1)CC2=O (racemic) [SKN, (+/−) 7-O-methylnaringenin]
2.9 ± 0.8	5.6 ± 3.6	15.7 ± 2.9	20.8 ± 3.4	–	–	–	–	–	–	–	–	–	–	–	–	15.9 ± 1.8	O=C1C[C@@H](c2ccc(O)c(O)c2)Oc2cc(O)cc(O)c21 [Eriodictyol, 3′-hydroxynaringenin]
